Results on 15 compounds are retold here after patent publication US20240270762A1, “PENICILLIN-BINDING PROTEIN INHIBITORS” (priority 2021, published 2024).

≈ marks a conversion by molar mass, not a printed value. Like-named read-outs stand apart in the source and are kept apart here.

Assay [1] has as its target T1, PBP3 from Pseudomonas aeruginosa (PAO1) (Pseudomonas aeruginosa, UniProt G3XD46).
T1 construct: made in house
The assay is described as follows: Bocillin-FL fluorescence polarization competition binding, P. aeruginosa PBP3. The conditions noted are these: Binding affinity to P. aeruginosa PBP3; fluorescence polarization competition binding assay using Bocillin-FL; read-out: P. aeruginosa PBP3 Potency. Put shortly:
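Purified PBP was preincubated with inhibitor (E. coli PBP3 1.5 μM, 30 min; P. aeruginosa PBP3 0.75 μM, A. baumannii PBP3 0.2 μM and PBP1a 1 μM, 15 min), then Bocillin-FL (0.1 μM; 0.05 μM for PBP1a) added and FP read up to 60 min. EC50 = 50% loss of bound probe.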

Another assay has as its target T2, A. baumannii PBP1a (Acinetobacter baumannii, UniProt A0ABX6CK30).
T2 sequence (A0ABX6CK30 1-851): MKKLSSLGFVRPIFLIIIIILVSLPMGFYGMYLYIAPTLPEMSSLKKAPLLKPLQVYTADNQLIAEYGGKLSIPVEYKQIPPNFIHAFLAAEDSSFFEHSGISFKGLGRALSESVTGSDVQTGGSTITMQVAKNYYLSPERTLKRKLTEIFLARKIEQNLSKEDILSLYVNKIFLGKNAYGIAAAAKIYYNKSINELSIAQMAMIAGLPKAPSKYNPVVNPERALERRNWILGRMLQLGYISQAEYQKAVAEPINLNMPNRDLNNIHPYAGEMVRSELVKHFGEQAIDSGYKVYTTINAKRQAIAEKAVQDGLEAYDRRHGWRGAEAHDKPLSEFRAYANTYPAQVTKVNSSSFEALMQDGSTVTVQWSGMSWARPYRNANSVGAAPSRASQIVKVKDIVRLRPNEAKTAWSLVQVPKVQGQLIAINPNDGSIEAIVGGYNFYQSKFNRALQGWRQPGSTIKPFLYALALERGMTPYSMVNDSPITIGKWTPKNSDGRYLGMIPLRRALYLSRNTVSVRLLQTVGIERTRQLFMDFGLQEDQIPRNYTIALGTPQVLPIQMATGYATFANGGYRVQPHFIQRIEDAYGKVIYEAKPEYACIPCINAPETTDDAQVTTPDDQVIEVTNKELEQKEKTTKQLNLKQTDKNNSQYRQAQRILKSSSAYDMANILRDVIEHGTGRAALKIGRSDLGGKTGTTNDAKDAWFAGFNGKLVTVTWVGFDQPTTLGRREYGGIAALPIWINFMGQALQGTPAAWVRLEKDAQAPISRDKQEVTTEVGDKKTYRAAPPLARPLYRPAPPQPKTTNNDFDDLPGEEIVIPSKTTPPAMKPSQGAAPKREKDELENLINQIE
The assay is described as follows: Bocillin-FL competition binding via gel filtration, A. baumannii PBP1a. The conditions noted are these: competition binding assay using Bocillin-FL via gel filtration; read-out: A. baumannii PBP1a Potency. Put shortly: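 Competitive equilibrium binding; reporter Bocillin-FL. PBP + inhibitor (titration) pre-incubated → Bocillin-FL, 15 min → gel filtration → fluorescence. EC50 from Hill fit of fraction bound vs [inhibitor].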
For orientation: Size exclusion chromatography separates by hydrodynamic size, large species first.

The test system of the next assay is A. baumannii ATCC 19606. The assay is described as follows: microbe, parasite or virus in culture. Type of assay: cell-based. The conditions noted are these: Acinetobacter baumannii.
In another assay the test system is P. aeruginosa CDC-0090. Briefly: microbe, parasite or virus in culture. The format is cell-based. The conditions noted are these: Pseudomonas aeruginosa, CDC0090, read-out: Minimum inhibitory concentration, P. aeruginosa CDC-0090.
Where [2] appears, read: ATCC19606, read-out: Minimum inhibitory concentration (MIC), A. baumannii ATCC 19606.
Setting [3] is: ATCC19606, read-out: MIC, A. baumannii ATCC 19606.

T1 sequence (G3XD46 whole entry): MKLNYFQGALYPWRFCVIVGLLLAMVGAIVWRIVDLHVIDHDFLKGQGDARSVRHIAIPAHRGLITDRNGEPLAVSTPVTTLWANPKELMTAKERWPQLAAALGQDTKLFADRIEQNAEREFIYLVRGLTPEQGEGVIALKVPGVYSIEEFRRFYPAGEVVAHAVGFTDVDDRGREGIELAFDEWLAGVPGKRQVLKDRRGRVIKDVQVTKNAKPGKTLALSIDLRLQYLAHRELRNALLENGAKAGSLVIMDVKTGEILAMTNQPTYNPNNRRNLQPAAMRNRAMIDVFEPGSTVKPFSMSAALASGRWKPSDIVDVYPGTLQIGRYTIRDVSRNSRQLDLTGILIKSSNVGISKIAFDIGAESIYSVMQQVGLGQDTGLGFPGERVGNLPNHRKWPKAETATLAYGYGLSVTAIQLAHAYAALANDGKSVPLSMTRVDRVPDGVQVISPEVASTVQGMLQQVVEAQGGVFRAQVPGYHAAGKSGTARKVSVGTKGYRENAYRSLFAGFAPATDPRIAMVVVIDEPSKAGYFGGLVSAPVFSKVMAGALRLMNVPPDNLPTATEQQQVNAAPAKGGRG

Take `O=C(O)c1c(F)ccc2c1OB(O)[C@@H](NC(=O)C(NC(=O)N1CCN(S(=O)(=O)c3ccc(O)c(O)c3Cl)C1=O)c1ccc(P(=O)(O)O)cc1)C2` (stereo partly drawn) [Example 505, (3R)-3-(2-(3-((2-chloro-3,4-dihydroxyphenyl)sulfonyl)-2-oxoimidazolidine-1-carboxamido)-2-(4-phosphonophenyl)acetamido)-7-fluoro-2-hydroxy-3,4-dihydro-2H-benzo[e][1,2]oxaborinine-8-carboxylic acid]: the IC50 in assay [1] is below 10 µM. In addition, on A. baumannii PBP1a, the EC50 was below 10 µM. In addition, the MIC in the assay on A. baumannii ATCC 19606 (setting [2]) and in the assay with P. aeruginosa CDC-0090 was below 1 µg/mL throughout.

As to `O=C(O)c1c(F)ccc2c1OB(O)[C@@H](NC(=O)C(NC(=O)N1CCN(C3CCN(C(=O)Nc4cc(O)c(F)cc4Cl)CC3)C(=O)C1=O)c1cc(F)c(O)c(O)c1Cl)C2` (stereo partly drawn) [Example 490, (3R)-3-(2-(4-(1-((2-chloro-4-fluoro-5-hydroxyphenyl)carbamoyl)piperidin-4-yl)-2,3-dioxopiperazine-1-carboxamido)-2-(2-chloro-5-fluoro-3,4-dihydroxyphenyl)acetamido)-7-fluoro-2-hydroxy-3,4-dihydro-2H-benzo[e][1,2]oxaborinine-8-carboxylic acid], in assay [1], the IC50 is below 10 µM. Further, the EC50 on A. baumannii PBP1a is below 10 µM. Moreover, the values for the MIC in the assay on A. baumannii ATCC 19606 (setting [2]) and in the assay on P. aeruginosa CDC-0090 were below 1 µg/mL and 2 to 4 µg/mL (≈ 2.34 to 4.69 µM), respectively.

As to `O=C(O)c1c(F)ccc2c1OB(O)[C@@H](NC(=O)[C@H](NC(=O)N1CCN(C3CCN(C(=O)c4c(F)ccc(O)c4Cl)CC3)C1=O)c1cc(F)c(O)c(O)c1Cl)C2` (single isomer, unassigned) [Example 440], in assay [1], the IC50 was below 10 µM. In addition, the EC50 at A. baumannii PBP1a is below 10 µM. Moreover, the MIC in the assay on A. baumannii ATCC 19606 (setting [3]) and in the assay on P. aeruginosa CDC-0090 was below 1 µg/mL each time.

On to `O=C(O)c1c(F)ccc2c1OB(O)[C@@H](NC(=O)[C@H](NC(=O)N1CCN(C3CCN(C(=O)c4ccc(O)cc4)CC3)C1=O)c1cc(F)c(O)c(O)c1Cl)C2` (single isomer, unassigned) [Example 463], for which the IC50 in assay [1] was below 10 µM. The EC50 at A. baumannii PBP1a was below 10 µM. Moreover, the MIC in the assay with A. baumannii ATCC 19606 (setting [3]) and in the assay on P. aeruginosa CDC-0090 was below 1 µg/mL throughout.

For `O=C(O)c1c(F)ccc2c1OB(O)[C@@H](NC(=O)[C@H](NC(=O)N1CCN(C3CCN(C(=O)Nc4ccc(O)c(O)c4Cl)CC3)C1=O)c1ccc(P(=O)(O)O)cc1)C2` (single isomer, unassigned) [Example 497], in assay [1], the IC50 was below 10 µM. In addition, the EC50 on A. baumannii PBP1a is below 10 µM. The MIC was below 1 µg/mL in the assay with A. baumannii ATCC 19606 (setting [2]) and 8 to 16 µg/mL (≈ 9.77 to 19.5 µM) with P. aeruginosa CDC-0090.

For the compound `O=C(O)c1c(F)ccc2c1OB(O)[C@@H](NC(=O)[C@H](NC(=O)N1CCN(C3CCN(C(=O)c4cc(O)c(F)c(O)c4)CC3)C1=O)c1cc(F)c(O)c(O)c1Cl)C2` (single isomer, unassigned) [Example 443], in assay [1], the IC50 is below 10 µM. Moreover, the EC50 at A. baumannii PBP1a was below 10 µM. Also, the MIC in the assay on A. baumannii ATCC 19606 (setting [3]) and with P. aeruginosa CDC-0090 was below 1 µg/mL in each case.

Consider `O=C(O)c1c(F)ccc2c1OB(O)[C@@H](NC(=O)[C@H](NC(=O)N1CCN(C3CCN(C(=O)Nc4cc(O)cc(O)c4)CC3)C1=O)c1cc(F)c(O)c(O)c1Cl)C2` [Example 456, (R)-3-((R)-2-(2-chloro-5-fluoro-3,4-dihydroxyphenyl)-2-(3-(1-((3,5-dihydroxyphenyl)carbamoyl)piperidin-4-yl)-2-oxoimidazolidine-1-carboxamido)acetamido)-7-fluoro-2-hydroxy-3,4-dihydro-2H-benzo[e][1,2]oxaborinine-8-carboxylic acid], for which, in assay [1], the IC50 is below 10 µM. The EC50 on A. baumannii PBP1a is below 10 µM. In addition, the MIC in the assay on A. baumannii ATCC 19606 (setting [3]) and in the assay with P. aeruginosa CDC-0090 was below 1 µg/mL throughout.

As for `O=C(O)c1c(F)ccc2c1OB(O)[C@@H](NC(=O)[C@H](NC(=O)N1CCN(C3CCN(C(=O)Nc4cc(O)ccc4Cl)CC3)C1=O)c1cc(F)c(O)c(O)c1Cl)C2` (single isomer, unassigned) [Example 448], the IC50 in assay [1] was below 10 µM. For the same compound, on A. baumannii PBP1a, the EC50 is below 10 µM. Besides, the MIC with A. baumannii ATCC 19606 (setting [3]) and with P. aeruginosa CDC-0090 was below 1 µg/mL in each case.

As to `O=C(O)c1c(F)ccc2c1OB(O)[C@@H](NC(=O)C(NC(=O)N1CCN(C3CCN(C(=O)Nc4cc(O)ccc4Cl)CC3)C(=O)C1=O)c1cc(F)c(O)c(O)c1Cl)C2` (stereo partly drawn) [Example 483, (3R)-3-(2-(2-chloro-5-fluoro-3,4-dihydroxyphenyl)-2-(4-(1-((2-chloro-5-hydroxyphenyl)carbamoyl)piperidin-4-yl)-2,3-dioxopiperazine-1-carboxamido)acetamido)-7-fluoro-2-hydroxy-3,4-dihydro-2H-benzo[e][1,2]oxaborinine-8-carboxylic acid], the IC50 in assay [1] was below 10 µM. Besides, the EC50 at A. baumannii PBP1a is below 10 µM. For the same compound, the MIC is below 1 µg/mL with A. baumannii ATCC 19606 (setting [3]) and 2 to 4 µg/mL (≈ 2.39 to 4.79 µM) with P. aeruginosa CDC-0090.

`O=C(O)c1c(F)ccc2c1OB(O)[C@@H](NC(=O)[C@H](NC(=O)N1CCN(C3CCN(C(=O)c4cc(F)c(O)c(O)c4Cl)CC3)C1=O)c1ccc(P(=O)(O)O)cc1)C2` (single isomer, unassigned) [Example 495]: the IC50 in assay [1] was below 10 µM. For the same compound, at A. baumannii PBP1a, the EC50 is below 10 µM. Moreover, the MIC with A. baumannii ATCC 19606 (setting [2]) and in the assay with P. aeruginosa CDC-0090 was below 1 µg/mL each time.

In the case of `O=C(O)c1c(F)ccc2c1OB(O)[C@@H](NC(=O)[C@H](NC(=O)N1CCN(C3CCN(C(=O)Nc4cc(F)c(F)c(O)c4F)CC3)C(=O)C1=O)c1cc(F)c(O)c(O)c1Cl)C2` [Example 491, (R)-3-((R)-2-(2-chloro-5-fluoro-3,4-dihydroxyphenyl)-2-(2,3-dioxo-4-(1-((2,4,5-trifluoro-3-hydroxyphenyl)carbamoyl)piperidin-4-yl)piperazine-1-carboxamido)acetamido)-7-fluoro-2-hydroxy-3,4-dihydro-2H-benzo[e][1,2]oxaborinine-8-carboxylic acid], the IC50 in assay [1] was below 10 µM. Besides, the EC50 at A. baumannii PBP1a was below 10 µM. The MIC was below 1 µg/mL in the assay on A. baumannii ATCC 19606 (setting [2]) and 2 to 4 µg/mL (≈ 2.34 to 4.68 µM) in the assay on P. aeruginosa CDC-0090.

Regarding `O=C(O)c1c(F)ccc2c1OB(O)[C@@H](NC(=O)[C@H](NC(=O)N1CCN(C3CCN(C(=O)c4cccc(O)c4Cl)CC3)C1=O)c1cc(F)c(O)c(O)c1Cl)C2` (single isomer, unassigned) [Example 432], the IC50 in assay [1] is below 10 µM. Also, on A. baumannii PBP1a, the EC50 was below 10 µM. Also, the MIC in the assay on A. baumannii ATCC 19606 (setting [3]) and with P. aeruginosa CDC-0090 was below 1 µg/mL throughout.

Regarding `O=C(O)c1c(F)ccc2c1OB(O)[C@@H](NC(=O)[C@H](NC(=O)N1CCN(C3CCN(C(=O)c4ccc(F)c(O)c4)CC3)C1=O)c1cc(F)c(O)c(O)c1Cl)C2` (single isomer, unassigned) [Example 435], the IC50 in assay [1] is below 10 µM. Moreover, the EC50 at A. baumannii PBP1a was below 10 µM. The MIC in the assay with A. baumannii ATCC 19606 (setting [3]) and with P. aeruginosa CDC-0090 was below 1 µg/mL in each case.

For `O=C(O)c1c(F)ccc2c1OB(O)[C@@H](NC(=O)[C@H](NC(=O)N1CCN(C3CCN(C(=O)c4ccc(F)c(O)c4F)CC3)C1=O)c1cc(F)c(O)c(O)c1Cl)C2` (single isomer, unassigned) [Example 437], the IC50 in assay [1] is below 10 µM. The EC50 at A. baumannii PBP1a is below 10 µM. Besides, the MIC with A. baumannii ATCC 19606 (setting [3]) and with P. aeruginosa CDC-0090 was below 1 µg/mL throughout.

As for `O=C(O)c1c(F)ccc2c1OB(O)[C@@H](NC(=O)[C@H](NC(=O)N1CCN(C3CCN(C(=O)c4cccc(O)c4)CC3)C1=O)c1cc(F)c(O)c(O)c1Cl)C2` (single isomer, unassigned) [Example 430], the IC50 in assay [1] is below 10 µM. The EC50 on A. baumannii PBP1a was below 10 µM. The MIC with A. baumannii ATCC 19606 (setting [3]) and with P. aeruginosa CDC-0090 was below 1 µg/mL in each case.
